Experimental data reported in US11547683B2, “Therapeutic compounds, formulations, and uses thereof” (Tvardi Therapeutics, Inc., priority 2020, dated 2023).

Test: Studies on oxidation of the compound of Formula (I)
Assay type: physicochemical
Description: Stability was analyzed using a variety of antioxidants. A bulk formulation containing Kolliphor® RH 40, PEG600, Polysorbate 80, Labrasol®, and Transcutol® HP (45:15:10:20:10 by weight) was prepared with a compound of Formula (I) concentration of 60 mg/g. Antioxidants, including Vitamin E (0.05 wt %), ascorbyl palmitate (0.05 wt %), butylated hydroxytoluene (0.005 wt %), and triethyl citrate (0.7 wt %) were dissolved/dispersed in the bulk formulation, respectively. The resulting samples were placed at room temperature in glass vials and protected from light. The samples were monitored for purity by HPLC at 0, 3, and 8 weeks.

COc1ccc(S(=O)(=O)Nc2cc(-c3c(O)ccc4ccccc34)c(O)c3ccccc23)cc1 [Compound of Formula (I)]
susceptibility to oxidation: susceptible to oxidation
